Common to all, as to experiment: Cytotoxicity assay (MTT)
What all share (format): cell-based

Series [1] concerns KB 3.1 (human endocervical adenocarcinoma). As to conditions: 5 days. How it is done:
(§1) Compounds 1−5 were dissolved as described in the previous section. The cytotoxicity assay was initially performed against the cell lines L929 (mouse fibroblasts), as well as KB 3.1 (human papillomavirus-related endocervical adenocarcinoma), as described previously. A detailed protocol, as well as sources of the cell lines, is given in the Supporting Information.
(§2) After incubating the cell lines with a serial dilution of the test compounds (final range: 37 to 0.6 × 10^−3 µg/mL) for five days, the cells were dyed using 3-(4,5-dimethyl-2-thiazolyl)-2,5-diphenyl-2H-tetrazolium bromide (MTT), which is only converted to its purple formazan derivative by living cells. Then, the intensity of the purple derivative in relation to cells without additive (set to 100% viability) for each concentration of a test compound was quantified. For this, the absorption at 595 nm was measured using a microplate reader to calculate the percentage of cell viability. From this, the half-maximum inhibitory concentration (IC50, in µM) was calculated.
(§3) Protocol: Cytotoxicity Assay
(§4) The ass ay w as co nducted i n 9 6-well flat-bottom mi crotiter plates using the parameters summarised i n Tabl e S 2 and as described in [S2].
(§5) Cell lines L929 and KB 3.1 were incubated at 37 °C under 10 % CO2 in Gibco™ DMEM medium (Thermo Fisher Scientific, Waltham, MA, USA) supplemented with 10 % FBS. A microtiter plate was filled with 120 µL of this suspension (50,000/mL) in each well.
(§6) Seperately, another microtiter plate was filled with 100 µL of growth medium in each well. Then, 50 µL of the test compound sol utions (1 mg/mL) were given to wells of the first column in two replicates (one compound per row). C ell s wi thout addi ti ves, Me O H, and MeOH: DMSO 9+1 were used as negative controls. Starting from the first column, 50 µL of the solutions were gradually transferred to the ne xt col umn, the conte nts thoroughl y mi xed, and 50 µ L transferred to the following column. This created a serial dilution of the test compounds r anging from 333 µg/mL to 1.9 ×10−3 µg/mL. The remai ni ng 50 µL after column twelve were discarded. From this microtiter plate, 60 µL of the sol utions from 111 µg/ mL to 1.9×10−3 µg/mL were given to the first plate containing 120 µL of the cel l suspens i ons (i.e. the hi ghest concentrati on 333 µg/mL was not used). T his resulted i n fi nal compound concent rati ons rangi ng from […]
(§7) After 5 days of incubation under the aforeme ntioned i ncubati on condi ti ons, the half maximum inhibitory concentrati ons (IC 50) were determined using a colorimetric tetrazolium dye MTT assay [S3].
(§8) For this, 20 µL of a 5 mg/mL solution of 3-( 4 ,5 -dimethyl-2-thi azo l yl)-2 ,5 -di phenyl -2H-tetrazolium bromide (MTT) w ere added to each well and incubated for two hours at 37 °C. Then, the microtiter plate was centrifuged (3,000 r p m, 5 mi n) and the supernat ant remo ved by ho l di ng the pl ate upsi de-do wn and gentle shaking. Afterwards, the wells were washed using 100 µL of phosph ate buffered saline (PBS).
(§9) The plate was again centrifuged and the supernatant removed as described before. Then, 100 µL of an isopropanol:HCl solution (1L i sopropanol+4 mL HCl 37 % w/v) were added to the wells. After i ncubati ng fo r 10 mi n at ambi ent te mperature, the a bso r pti o n of the well s at 595 nm was measured wi th an I nfi ni te ® 200 Pro microplate reader (TECAN, Männedorf, Schweiz).
(§10) The absorption values of the cells without additives were averaged and set to 100 % cell viability.
(§11) Then, t he me ans of absorption of the two compound replicates were set in relation to the blank media.
These percentage values were plotted a gainst the concentration range (37 µg/mL to 0.6×10 −3 µg/mL).
The IC50 val ue w as read from the plot ( i n µg/mL) and the uni ts conversed to µM.
If effects were observed wi th cell lines L929 and KB 3.1 (IC50 < 50 µM), the other cell lines were tested using the same protocol.
Table S2: Cytotoxicity assay experiment parameters cell line type No. growth medium […]

For series [2], the system named is A431 (human squamous carcinoma). The note with it: Homo sapiens, A-431, 120 h, A431, 5 days, value in µg/mL, read-out: half-maximum inhibitory concentration (IC50). On the procedure:
as §1, §2
(§12) If an inhibition of cell viability with an IC50 < 50 µM was observed, further cell lines were subjected to the test compounds: PC-3 (human prostate adenocarcinoma), SK-OV-3 (human ovary adenocarcinoma), MCF-7 (human breast adenocarcinoma), A431 (human squamous carcinoma) and A549 (human lung carcinoma).
as §3, §4, §5, §6, §7, §8, §9, §10, §11
(§13) These percentage values were plotted a gainst the concentration range (37 µg/mL to 0.6×10 −3 µg/mL). […]

Series [3] deals with A549 (human lung carcinoma). The note with it: Homo sapiens, 120 h, A549, 5 days, value in µg/mL, read-out: half-maximum inhibitory concentration (IC50). How it is done:
as §1, §2, §12, §3, §4, §5, §6, §7, §8, §9, §10, §11, §13

The results in this text go back to publication PMC7277860, “Viridistratins A−C, Antimicrobial and Cytotoxic Benzo[j]fluoranthenes from Stromata of Annulohypoxylon viridistratum (Hypoxylaceae, Ascomycota)” (Biomolecules, 2020).

Values after ≈ are worked out from the molar mass of the structure shown.

Compound `COc1cccc2c3c(ccc12)-c1ccc(O)c2c(OC)ccc-3c12` [Compound 3, viridistratin C] returned an IC50 in series [1] of 85.4 µM. Take `COc1cccc2c3c(ccc12)-c1ccc(O)c2c(O)ccc-3c12` [Compound 2, viridistratin B]: the IC50 turned out to be 0.34 µg/mL (≈ 1.08 µM) in series [2] and 0.45 µg/mL (≈ 1.43 µM) in series [3].
